Several values for one entry are separate records, joined by “and”; a condition that tells them apart may be missing. Identical values can stand only once.
System: RPMI-8226 cells
Assay: Gene expression profiling, NanoString nCounter PanCancer Pathways Panel, ROSALIND analysis
Assay type: cell-based, human
Conditions: RPMI-8226, TCH-165 samples 1-3
Method: RPMI-8226 cells were treated with vehicle or TCH-165 (10 μM) for 4 h. Total RNA was obtained using the mirVana miRNA Isolation Kit, with phenol (Thermofisher Scientific; AM1560; Waltham, MA, USA). Total RNA was quantified by Qubit (Thermofisher Scientific; Q32855; Waltham, MA, USA). and gene expression was evaluated against the nCounter® PanCancer Pathways Panel^TM according to the standard NanoString protocol.
Data were analyzed by ROSALIND® [36] with a hyperscale architecture developed by ROSALIND, Inc. (San Diego, CA, USA). Normalization, fold changes and p-values were calculated using criteria provided by NanoString. ROSALIND follows the nCounter® Advanced Analysis protocol of dividing counts within a lane by the geometric mean of the normalizer probes from the same lane. Housekeeping probes to be used for normalization are selected based on the geNorm algorithm, as implemented in the NormqPCR R library. Fold changes and p-values are calculated using the fast method as described in the nCounter Advanced Analysis 2.0 User Manual. The p-value adjustment is performed using the Benjamini–Hochberg method of estimating false discovery rates (FDR). Clustering of genes for the final heatmap of differentially expressed genes was done using the PAM (Partitioning Around Medoids) method using the fpc R library. Hypergeometric distribution was used to analyze the enrichment of pathways, gene ontology, domain structure and other ontologies. The topGO R library was used to determine local similarities and dependencies between GO terms in order to perform Elim pruning correction. Several database sources were referenced for enrichment analysis, including Interpro [40], NCBI [41], MSigDB [42, 43], REACTOME [44], WikiPathways. Enrichment was calculated relative to a set of background genes relevant to the experiment.

CCOC(=O)[C@]1(c2ccccc2)N=C(c2ccc(OC)cc2)N(Cc2ccccc2)[C@@H]1c1ccc(NCc2ccccc2)cc1 [TCH-165]
RPA3 normalized gene expression: 6.234 and 6.077 and 5.975 | RPS6KA5 normalized gene expression: 8.162 and 8.249 and 8.109 | RPS6KA6 normalized gene expression: 4.308 and 4.154 and 4.653 | RPS27A normalized gene expression: 16.3114 and 16.3789 and 16.3612 | RRAS2 normalized gene expression: 6.59 and 6.242 and 6.0682 | RUNX1T1 normalized gene expression: 4.649 and 5.3768 and 5.0682 | RUNX1 normalized gene expression: 7.156 and 7.154 and 7.31 | RXRG normalized gene expression: 5.758 and 5.569 and 5.1271 | SETBP1 normalized gene expression: 9.152 and 8.96 and 8.955 | SETD2 normalized gene expression: 9.224 and 9.1619 and 9.096 | SF3B1 normalized gene expression: 10.9301 and 10.7965 and 10.7773 | SFN normalized gene expression: 7.723 and 7.476 and 7.668 | SFRP1 normalized gene expression: 5.401 and 5.0613 and 4.731 | SFRP2 normalized gene expression: 4.723 and 4.427 and 4.613 | SFRP4 normalized gene expression: 1.986 and 2.3768 and 2.483 | SGK2 normalized gene expression: 4.401 and 4.324 and 4.0682 | SHC1 normalized gene expression: 10.583 and 10.7262 and 10.7216 | SHC2 normalized gene expression: 3.723 and 3.962 and 3.653 | SHC3 normalized gene expression: 6.308 and 6.364 and 6.251 | SIN3A normalized gene expression: 9.8539 and 9.738 and 9.646 | SIRT4 normalized gene expression: 5.156 and 4.739 and 5.238 | SIX1 normalized gene expression: 3.571 and 3.3768 and 4.1271 | SKP1 normalized gene expression: 12.8613 and 12.7826 and 12.7408 | SKP2 normalized gene expression: 8.831 and 8.717 and 8.705 | SMAD2 normalized gene expression: 9.453 and 9.37 and 9.493 | SMAD3 normalized gene expression: 6.723 and 6.646 and 6.759 | SMAD4 normalized gene expression: 9.445 and 9.475 and 9.381 | SMAD9 normalized gene expression: 4.208 and 3.657 and 4.238 | SMARCA4 normalized gene expression: 10.8723 and 10.9931 and 10.958 | SMARCB1 normalized gene expression: 9.431 and 9.4165 and 9.399 | SMC1A normalized gene expression: 10.4464 and 10.4079 and 10.3505 | SMC1B normalized gene expression: 4.401 and 3.739 and 3.731 | SMC3 normalized gene expression: 10.9533 and 10.9237 and 10.9519 | SMO normalized gene expression: 5.986 and 5.657 and 5.341 | SOCS1 normalized gene expression: 6.892 and 6.769 and 6.683 | SOCS2 normalized gene expression: 5.955 and 5.476 and 5.5707 | SOCS3 normalized gene expression: 5.827 and 5.351 and 5.613 | SOS1 normalized gene expression: 8.45 and 8.321 and 8.235 | SOS2 normalized gene expression: 7.434 and 7.338 and 7.36 | SOST normalized gene expression: 3.86 and 3.3768 and 3.805 | SOX9 normalized gene expression: 5.044 and 5.093 and 4.731 | SP1 normalized gene expression: 7.695 and 7.694 and 7.736 | SPOP normalized gene expression: 6.308 and 6.324 and 6.0531 | SPP1 normalized gene expression: 11.9193 and 11.8738 and 11.9244 | SPRY1 normalized gene expression: 4.308 and 4.154 and 4.184 | SPRY2 normalized gene expression: 5.793 and 5.154 and 5.0682 | SRSF2 normalized gene expression: 10.5286 and 10.321 and 10.2662 | SSX1 normalized gene expression: 4.571 and 4.614 and 4.341 | STAG2 normalized gene expression: 11.0854 and 11.0452 and 11.0734 | STAT1 normalized gene expression: 8.92 and 8.846 and 9.0757 | STAT3 normalized gene expression: 9.132 and 9.111 and 9.089 | STAT4 normalized gene expression: 7.259 and 7.045 and 7.149 | STK11 normalized gene expression: 7.868 and 7.592 and 7.623 | STMN1 normalized gene expression: 12.569 and 12.5392 and 12.5363 | SYK normalized gene expression: 10.2633 and 10.2568 and 10.1565 | TCF3 normalized gene expression: 9.548 and 9.673 and 9.547 | TCL1B normalized gene expression: 2.986 and 2.569 and 2.943 | TET2 normalized gene expression: 7.142 and 7.021 and 6.918 | TFDP1 normalized gene expression: 10.7659 and 10.7019 and 10.7109 | TGFB1 normalized gene expression: 8.78 and 8.675 and 8.641 | TGFB2 normalized gene expression: 3.86 and 3.27 and 3.943 | TGFB3 normalized gene expression: 4.986 and 4.891 and 4.483 | TGFBR2 normalized gene expression: 7.169 and 7.004 and 6.787 | THBS1 normalized gene expression: 5.445 and 4.927 and 4.769 | THBS4 normalized gene expression: 3.208 and 2.569 and 3.291 | TIAM1 normalized gene expression: 5.793 and 5.476 and 5.414 | TLR2 normalized gene expression: 6.355 and 5.855 and 5.876 | TLR4 normalized gene expression: 8.52 and 8.18 and 8.197 | TLX1 normalized gene expression: 3.86 and 4.427 and 4.1271 | TMPRSS2 normalized gene expression: 6.182 and 6.093 and 6.1126 | TNC normalized gene expression: 4.723 and 4.7789 and 4.39 | TNF normalized gene expression: 4.986 and 4.817 and 5.0682 | TNFAIP3 normalized gene expression: 7.658 and 7.488 and 7.528 | TNFRSF10A normalized gene expression: 7.986 and 7.827 and 7.893 | TNFRSF10B normalized gene expression: 6.61 and 6.5 and 6.602 | TNFRSF10C normalized gene expression: 4.101 and 3.891 and 3.943 | TNFRSF10D normalized gene expression: 6.827 and 6.476 and 6.461 | TNFSF10 normalized gene expression: 8.202 and 8.1619 and 8.225 | TNR normalized gene expression: 5.686 and 5.297 and 5.5707 | TP53 normalized gene expression: 10.0117 and 9.981 and 9.929 | TPO normalized gene expression: 4.924 and 5.184 and 5.156 | TSC1 normalized gene expression: 8.714 and 8.273 and 8.399 | TSHR normalized gene expression: 4.649 and 4.476 and 4.39 | TSPAN7 normalized gene expression: 6.776 and 6.891 and 6.539 | TTK normalized gene expression: 9.89 and 9.8374 and 9.804 | U2AF1 normalized gene expression: 12.4063 and 12.4515 and 12.4562 | UBB normalized gene expression: 12.5802 and 12.4733 and 12.4875 | UBE2T normalized gene expression: 10.5402 and 10.5496 and 10.5687 | UTY normalized gene expression: 3.86 and 4.093 and 4.0682 | VEGFA normalized gene expression: 10.7951 and 10.7989 and 10.8309

— publication PMC9138505, “Small Molecule 20S Proteasome Enhancer Regulates MYC Protein Stability and Exhibits Antitumor Activity in Multiple Myeloma” (Biomedicines, 2022)
